Entries after “also recorded” stand apart in the source; their conditions may differ.

The values below come from patent US10828310B2, “Reducing the risk of cardiovascular events” (Bayer Pharma Aktiengesellschaft, priority 2018, dated 2020).

The test system of data set [1] is patients with stable atherosclerotic vascular disease (coronary artery disease, peripheral arterial disease, or both). The data set can be described thus: COMPASS trial, efficacy outcomes. The class given is in vivo, human. Conditions: for participants reported to have atrial fibrillation who had a stroke: 26 of the 392 participants with atrial fibrillation; for primary outcome event of cardiovascular death, stroke, or myocardial infarction, number of patients / primary outcome event of cardiovascular death, stroke, or myocardial infarction, percentage of patients: rivaroxaban alone 5 mg twice daily, mean follow-up 23 months; for primary outcome / major adverse cardiovascular events compared with aspirin alone (in words): compared with aspirin alone 100 mg once daily. The procedure: Patients were eligible if they provided written informed consent and met the criteria for coronary artery disease, peripheral arterial disease, or both. Patients with coronary artery disease who were younger than 65 years of age were also required to have documentation of atherosclerosis involving at least two vascular beds or to have at least two additional risk factors (current smoking, diabetes mellitus, an estimated glomerular filtration rate (“GFR”)<60 ml per minute, heart failure, or nonlacunar ischemic stroke≥1 month earlier). Exclusion criteria were a high bleeding risk; a recent stroke or previous hemorrhagic or lacunar stroke; severe heart failure; advanced stable kidney disease (estimated GFR<15 ml per minute); the use of dual antiplatelet therapy, anticoagulation, or other antithrombotic therapy; and noncardiovascular conditions deemed by the investigator to be associated with a poor prognosis.
Eligible participants (except those who underwent randomization 4 to 14 days after coronary-artery bypass graft (“CABG”) surgery) entered a run-in phase during which they received a rivaroxaban-matched placebo twice daily and aspirin at a dose of 100 mg once daily. The purpose of the run-in phase was to identify participants who were unwilling or unable to adhere to the trial regimen, who had adverse events, or who were otherwise not suitable for randomization. Patients who underwent randomization 4 to 14 days after CABG surgery were not required to participate in the run-in phase because thrombotic graft occlusion is most common during the first few weeks after surgery and we sought to enroll such patients promptly.
(§1) Study aspirin was enteric-coated.
(§2) Three secondary efficacy outcomes were specified: the composite of ischemic stroke, myocardial infarction, acute limb ischemia, or death from coronary heart disease; the composite of ischemic stroke, myocardial infarction, acute limb ischemia, or cardiovascular death; and death from any cause. Tertiary efficacy outcomes included individual components of the primary and secondary outcomes, as well as hospitalization for cardiovascular causes, revascularization, limb amputation, stent thrombosis, angina, heart failure, venous thromboembolism, resuscitated cardiac arrest, and a new diagnosis of cancer. The net-clinical-benefit outcome was the composite of cardiovascular death, stroke, myocardial infarction, fatal bleeding, or symptomatic bleeding into a critical organ.
All the outcome events in all randomly assigned patients that occurred between randomization and the date of stopping the trial were included in the analysis, according to the intention-to-treat principle. An early stop of both antithrombotic treatment groups for efficacy had not been anticipated, and therefore a strategy for formal testing of secondary outcomes at the interim analysis was not prespecified.
(§3) All reported P values are two-sided.

The test system is the same in data set [2]. The data set can be described thus: COMPASS trial, net-clinical-benefit outcome. In kind it is in vivo, human.
Excerpt: “Safe” for the methods disclosed herein may also be measured by the net clinical benefit of the inventive method or product compared to administration of aspirin alone. The net clinical benefit outcome consists of cardiovascular death, myocardial infarction, stroke, and fatal or critical organ bleeding.
Because the products and methods of the present invention involve medications that cause the desired reduction in the risk of myocardial infarction, stroke, or cardiovascular death yet also cause undesired bleeding, the “net clinical benefit” of the therapy is important to consider. The “net clinical benefit” composite is a positive benefit risk ratio that was derived using severe bleeding events (intracranial bleeding, fatal bleeding, and critical organ bleeding) as a component of the composite. In clinical studies, the risk of the composite net clinical benefit outcome of cardiovascular death, stroke, myocardial infarction, fatal bleeding or symptomatic bleeding into a critical organ was lower with twice-daily 2.5 mg rivaroxaban combined with once daily 100 mg aspirin (4.7%) than with aspirin alone (100 mg once daily) (5.9%), hazard ratio 0.80.
as §1, §2, §3

The subject of data set [3] is patients with stable peripheral arterial disease. Conditions: in vivo; cited from earlier work.
Data set [4] deals with patients with stable cardiovascular disease. Conditions: in vivo; cited from earlier work.
Data set [5] deals with patients with stable cardiovascular disease receiving single or dual antiplatelet therapy. Conditions: in vivo; cited from earlier work.
Data set [6] deals with patients with a recent acute coronary syndrome. Conditions: background of single or dual antiplatelet therapy, cited from earlier work.
Data set [7] deals with patients with stable atherosclerotic vascular disease (coronary artery disease, peripheral arterial disease, or both). Conditions: human, in vivo, 23 months. An excerpt:
Adverse events that impact whether the inventive combinations and combination therapy are safe are adverse bleeding events that include, for example, major bleeding, minor bleeding, intracranial bleeding, and symptomatic bleeding into a critical organ. “Major bleeding” as used herein is a modification of the International Society on Thrombosis and Haemostasis (ISTH) criteria for major bleeding and includes fatal bleeding, symptomatic bleeding into a critical organ, bleeding into a surgical site requiring reoperation, and bleeding that led to hospitalization (including presentation to an acute care facility without an overnight stay). Unlike the ISTH criteria, all bleeding that led to presentation to an acute care facility or hospitalization is considered as major.
The COMPASS trial, conducted at 602 centers in 33 countries, is a double-blind, double-dummy, randomized trial using a 3-by-2 partial factorial design and involving patients with a history of stable atherosclerotic vascular disease. […]

[8] abbreviates: rivaroxaban 2.5 mg twice daily + aspirin 100 mg once daily, aspirin alone 100 mg once daily.

Regarding `CC(=O)Oc1ccccc1C(=O)O` [aspirin alone, acetylsalicylic acid], the “participants reported to have atrial fibrillation who had a stroke” value in data set [1] came to 11 participants. In addition, in data set [1] (setting [8]), the “deaths (death from any cause), number” value turned out to be 378 deaths; the “deaths (death from any cause), percentage” value was determined as 4.1%; the “secondary composite outcome of ischemic stroke, myocardial infarction, acute limb ischemia, or death from coronary heart disease, number of patients” value came out at 450 patients; the “secondary composite outcome of ischemic stroke, myocardial infarction, acute limb ischemia, or death from coronary heart disease, percentage of patients” value was 4.9%. In data set [1] (setting [8]), the “secondary outcome of ischemic stroke, myocardial infarction, acute limb ischemia, or cardiovascular death, number of patients” value was 516 patients; the “secondary outcome of ischemic stroke, myocardial infarction, acute limb ischemia, or cardiovascular death, percentage of patients” value is 5.7%; the “primary outcome event of cardiovascular death, stroke, or myocardial infarction, number of patients” value was determined as 496 patients; the “primary outcome event of cardiovascular death, stroke, or myocardial infarction, percentage of patients” value came to 5.4%. Moreover, in data set [2] (setting [8]), the “composite net-clinical-benefit outcome of cardiovascular death, stroke, myocardial infarction, fatal bleeding, or symptomatic bleeding into a critical organ, number of patients” value is given as 534 patients and the “composite net-clinical-benefit outcome of cardiovascular death, stroke, myocardial infarction, fatal bleeding, or symptomatic bleeding into a critical organ, percentage of patients” value stood at 5.9%.
As for `CCCSc1nc(N[C@@H]2C[C@H]2c2ccc(F)c(F)c2)c2nnn([C@@H]3C[C@H](OCCO)[C@@H](O)[C@H]3O)c2n1` [ticagrelor], in data set [3], the “rate of major adverse cardiovascular events vs clopidogrel” value was “did not result in a significantly lower rate”.
As for `COC(=O)[C@H](c1ccccc1Cl)N1CCc2sccc2C1` [clopidogrel], in data set [4], the “risk of cardiovascular death or death from any cause vs aspirin” value is recorded as “no significant difference” and the “risk of major adverse cardiovascular events vs aspirin” value is recorded as “lower risk”.
For `CCOC(=O)N[C@@H]1CC[C@@H]2[C@@H](C1)C[C@H]1C(=O)O[C@H](C)[C@H]1[C@H]2/C=C/c1ccc(-c2cccc(F)c2)cn1` [vorapaxar], in data set [5], the mortality vs placebo entry is listed as “no significant between-group difference”, the “rate of major adverse cardiovascular events vs placebo” value is recorded as “lower rate” and the “rate of moderate or severe bleeding vs placebo” value is given as “higher rate”.
As for `O=C(NC[C@H]1CN(c2ccc(N3CCOCC3=O)cc2)C(=O)O1)c1ccc(Cl)s1` [rivaroxaban alone, 5-chloro-N-({(5S)-2-oxo-3-[4-(3-oxo-4-morpholinyl)phenyl]-1,3-oxazolidin-5-yl}methyl)-2-thiophenecarboxamide], in data set [1], the “participants reported to have atrial fibrillation who had a stroke” value is reported as 8 participants and the “primary outcome / major adverse cardiovascular events compared with aspirin alone (in words)” value was “did not show a significant difference”. Moreover, the “primary outcome / major adverse cardiovascular events compared with aspirin alone (in words)” value in data set [1] (listed as Rivaroxaban) was “not associated with a significant reduction”. For the same molecule, the “primary outcome / major adverse cardiovascular events compared with aspirin alone (in words)” value in data set [1] (listed as Rivaroxaban alone) is listed as “did not result in a significantly lower risk”. Also, the “hazard ratio for the primary outcome” value in data set [1] (compared with aspirin alone, stratified Cox model) came out at 0.90. Besides, in data set [1] (setting [8]), the “primary outcome event of cardiovascular death, stroke, or myocardial infarction, number of patients” value stood at 448 patients and the “primary outcome event of cardiovascular death, stroke, or myocardial infarction, percentage of patients” value worked out at 4.9%. The “rate of major adverse cardiovascular events vs placebo” value in data set [6] (2.5 mg twice daily or 5 mg twice daily) is “lower rate”. In addition, the mortality vs placebo entry in data set [6] (2.5 mg twice daily) is given as “lower mortality”. For the same molecule, in data set [7], the “hazard ratio, major bleeding events (modified ISTH criteria)” value stood at 1.51. For the same molecule, in data set [2] (rivaroxaban alone 5 mg twice daily vs aspirin alone), the “net-clinical-benefit outcome compared with aspirin alone (in words)” value is recorded as “not significantly lower; also recorded: did not show a significant difference”.
